This note sets out measurements from patent US11357852B2, “Diglycosylated benzophenoxazine photosensitizer and preparation method and use thereof” (The Third Xiangya Hospital of Central South University, priority 2017, dated 2022).

Type in all cases: cell-based
For assay [1], the system named is p-PP2A. Kind of assay: Western Blot of PP2A phosphorylation in A-431 cells. The settings on record: 200 to 800 nM, 20 J/cm^2 red light 15 min, Western Blot (FIG. 5). An excerpt: (§1) The Wnt signaling pathway mainly refers to a classic Wnt signaling pathway mediated by β-Catenin. In the absence of the Wnt signaling, GSK3β can add a phosphate group to the serine/threonine residue at the N-terminus of β-Catenin. The phosphorylated β-Catenin is covalently modified by β-TRCP ubiquitination and then degraded by a proteasome. […] Therefore, by measuring the phosphorylation statuses of GSK3β, β-Catenin and PP2A, we can directly understand whether the Wnt signaling is activated. C-myc and Cyclin D1 as protooncogenes can promote division and translation of the cells of cutaneous squamous cell carcinoma, and ultimately promote cell proliferation. By observing C-myc and Cyclin D1, we can clearly understand the inhibition effect of the photosensitizer of the present invention on proliferation of the A-431 cells. […]
(§2) A-431 cells at the logarithmic growth phase were digested with trypsin, and inoculated into a six-well culture plate, and cultured in a 5% CO2 incubator at 37° C. […] Respectively after 0.5 h and 16 h, the cells were collected to extract total protein, and the p-GSK3β, p-PP2A, p-β-catenin, C-myc, Cyclin D1 and β-Catenin in the cells were detected by the Western Blot method.

Assay [2] relates to p-GSK3β. The experiment in a line: Western Blot of GSK3β phosphorylation in A-431 cells. To be noted: 200 to 800 nM, 20 J/cm^2 red light 15 min, Western Blot (FIG. 5).
Excerpt: as §1, §2
In general terms: Immunoblotting shows a protein as a band on a membrane.

The subject of assay [3] is β-Catenin. Kind of assay: Western Blot of β-Catenin expression in A-431 cells. The settings on record: Western Blot (FIG. 6).
Excerpt: as §1, §2

The subject of assay [4] is C-myc. Kind of assay: Western Blot of C-myc expression in A-431 cells. The settings on record: Western Blot (FIG. 6).
Excerpt: as §1, §2

The test system of assay [5] is p-β-catenin. Kind of assay: Western Blot of β-catenin phosphorylation in A-431 cells. The settings on record: 100 nM and 400 to 800 nM, 20 J/cm^2 red light 15 min, Western Blot (FIG. 5).
Excerpt: as §1, §2

Assay [6] concerns Cyclin D1. The experiment in a line: Western Blot of Cyclin D1 expression in A-431 cells. The settings on record: Western Blot (FIG. 6).
Excerpt: as §1, §2

Assay [7] relates to A-431 cells. Kind of assay: MTT method, proliferation of A-431 cells after photosensitizer and red light irradiation. The method, then: The MTT method is a method for detecting cell survival and growth. The detection principle of it is that a succinate dehydrogenase in mitochondria of living cells can reduce exogenous MTTs to water-insoluble blue-violet crystalline formazan and deposit the formazan in the cells, while dead cells have no such function. Dimethyl sulfoxide (DMSO) can dissolve the formazan in the cells, and the light absorbance value of it is measured at 490 nm wavelength with an enzyme-linked immunometric meter, which can indirectly reflect the number of living cells.
The cell line A-431 of cutaneous squamous cell carcinoma was cultured in a DMEM medium that contained 10% calf serum, added with […] of penicillin and 100 mg/L of streptomycin, and placed in a constant-temperature incubator at 37° C. and containing 5% CO2 for conventional culture. After the cells grew to confluence on the bottom of the flask, the medium was discarded, the cells were rinsed twice with a PBS solution, and then digested with 0.25% trypsin and 0.02% EDTA for 5 minutes, and then subcultured into flasks once every 2 to 3 days. The cells at the logarithmic growth phase were taken for experiment.
A-431 cells at the logarithmic growth phase were digested with trypsin, and inoculated into a six-well culture plate, and cultured in a 5% CO2 incubator at 37° C. When grew to the confluence of 80%-90%, the cells were respectively added with distilled water and 100 nM, 200 nM, 400 nM, 600 nM and 800 nM of the diglycosylated benzophenoxazine photosensitizer referred in the present invention. After incubation for 1 h, the cells were irradiated with 20 J/cm^2 of red light for 15 min. 16 h later, the survival and growth status of the cells were detected by the MTT method.

Regarding `CCN(CC)CCC(C)(C[Se]N(CC)c1ccc2nc3c4ccccc4/c(=N\[Se]CC(C)(CN(CC)CC)ONC4C(O)C(O)C(CO)O[C@@H]4O)cc-3[se]c2c1)ONC1C(O)C(O)C(CO)O[C@@H]1O` (stereo partly drawn), in assay [1], the “phosphorylation of PP2A” value is on record as “significantly inhibit”. In addition, the “phosphorylation of GSK3β” value in assay [2] is “significantly inhibit”. The “expression quantity of β-Catenin” value in assay [3] (100 to 400 nM) is “increased slightly”; in assay [3] (600 and 800 nM) it was “significantly decreased”. Further, the “expression quantity of C-myc” value is “increased slightly” in assay [4] (100 to 400 nM); “significantly decreased” in assay [4] (600 and 800 nM). The “phosphorylation of β-catenin” value in assay [5] was “significantly promote”. For the same compound, the “expression quantity of Cyclin D1” value is given as “increased slightly” in assay [6] (100 to 400 nM); “significantly decreased” in assay [6] (600 and 800 nM). In addition, the “proliferation of A-431 cells” value in assay [7] (600 nM and 800 nM, concluded from Western Blot results (FIG. 6)) is “significantly inhibit”. Besides, the “proliferation of the A-431 cells” value in assay [7] (100-800 nM, inhibition increases with dose, 20 J/cm^2 red light 15 min, MTT 16 h later) is reported as “significantly inhibit”. In assay [7] (Homo sapiens, light or radiation study, 800 nM, A-431 cells, incubation 1 h, 20 J/cm^2 red light 15 min, MTT 16 h later, read-out: proliferation inhibition effect), the inhibition at 0.8 µM was determined as 80%.
